Results on four compounds are retold here after US9133154B2, “Substituted 3-phenylpropylamine derivatives for the treatment of ophthalmic diseases and disorders” (Acucela Inc., priority 2013, dated 2015).

The target in test [1] is T1, recombinant human RPE65 and LRAT (visual cycle isomerase) (Homo sapiens, UniProt Q16518).
T1 sequence (Q16518 2-533): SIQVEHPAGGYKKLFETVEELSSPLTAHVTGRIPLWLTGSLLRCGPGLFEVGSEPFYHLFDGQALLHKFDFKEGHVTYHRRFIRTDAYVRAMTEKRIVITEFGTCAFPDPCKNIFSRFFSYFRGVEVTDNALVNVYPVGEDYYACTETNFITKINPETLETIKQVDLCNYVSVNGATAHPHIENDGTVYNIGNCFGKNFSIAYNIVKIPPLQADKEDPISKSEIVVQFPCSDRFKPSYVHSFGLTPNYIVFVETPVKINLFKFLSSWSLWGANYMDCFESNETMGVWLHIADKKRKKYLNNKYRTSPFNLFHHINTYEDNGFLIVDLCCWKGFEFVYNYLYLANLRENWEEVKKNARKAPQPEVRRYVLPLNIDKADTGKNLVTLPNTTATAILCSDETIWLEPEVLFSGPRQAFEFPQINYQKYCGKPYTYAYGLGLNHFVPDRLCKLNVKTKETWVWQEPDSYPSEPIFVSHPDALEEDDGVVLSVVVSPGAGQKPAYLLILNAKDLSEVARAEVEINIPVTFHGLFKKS
Briefly: Human in vitro isomerase inhibition assay. The conditions noted are these: comparison compounds.

Test [2] deals with isomerase (recovery of 11-cis-retinal after bleaching). Briefly: In vivo murine isomerase assay. The conditions noted are these: mice, oral gavage.
Description: The capability of compounds described herein to inhibit isomerase was determined by an in vivo murine isomerase assay. […] The recovery of 11-cis-retinal after bleaching can be used to estimate the activity of isomerase in vivo. Delayed recovery, as represented by lower 11-cis-retinal oxime levels, indicates inhibition of isomerization reaction.
Mice were gavaged with the test compound. […] The mice were allowed to recover 2 hours in the dark. The animals were then sacrificed by carbon dioxide inhalation. Retinoids were extracted from the eye and the regeneration of 11-cis-retinal was assessed at various time intervals.
After the mice were sacrificed, the eyes were immediately removed and placed in liquid nitrogen for storage.
The eyes were placed in 500 μL of bis-tris propane buffer (10 mM, pH˜7.3) and 20 μL of 0.8M hydroxile amine (pH˜7.3). The eyes were cut up into small pieces with small iris scissors and then thoroughly homogenized at 30000 rpm with a mechanical homogenizer (Polytron PT 1300 D) in the tube until no visible tissue remained. 500 μL of methanol and 500 μL of heptane were added to each tube. The tubes were attached to a vortexer so that the contents were mixed thoroughly for 15 minutes in room temperature. The organic phase was separated from the aqueous phase by centrifugation for 10 min at 13K rpm, 4° C. 240 μL of the solution from the top layer (organic phase) was removed and transferred to clean 300 μl glass inserts in HPLC vials using glass pipette and the vials were crimped shut tightly.
The samples were analyzed on an Agilent 1100 HPLC system with normal phase column: SILICA (Beckman Coutlier, dp 5 μm, 4.6 mM×250 mM). […] Loading volume for each sample was 100 μA detection wavelength was 360 nm. The area under the curve for 11-cis retinal oxime was calculated by Agilent Chemstation software and was recorded manually. Data processing was performed using Prizm software.
Positive control mice (no compound administered) were sacrificed fully dark-adapted and the eye retinoids analyzed. Light (bleached) control mice (no compound administered) were sacrificed and retinoids isolated and analyzed immediately after light treatment.
A time course study was performed to determine the isomerase inhibitory activity of the test compound. […] The animals were then “photo-bleached” (5000 Lux white light for 10 minutes) at 2, 4, 8, 16 and 24 hours after dosing, and returned to darkness to allow recovery of the 11-cis-retinal content of the eyes. Mice were sacrificed 2 hours after bleaching, eyes were enucleated, and retinoid content is analyzed by HPLC.
Recovery control mice (vehicle-only treated) were light-treated and left to recover for 2 hours in the dark before sacrifice and analysis. Light control mice (vehicle only treated) were sacrificed for analysis immediately after photo-bleaching.
An in vivo dose response isomerase inhibition study was performed with test compound. […] Recovery and retinoid analysis were performed as described above. Dark control mice were vehicle-only treated, sacrificed fully dark adapted without light treatment, and analyzed. Recovery control mice and light control mice were included in the study as per the initial phase.
Test [3] deals with regeneration of 11-cis-retinal. Briefly: Single dose time course in the in vivo isomerase assay at 0.3 mg/kg. Set-up: species or system BALB/c mice. The conditions noted are these: BALB/c mice, single oral 0.3 mg/kg; for activity at 0.3 mg/kg: Mus musculus, read-out: Percent Control (Avg. % Inhibition). As for the experimental part:
(§1) All test compounds were stored at room temperature, dessicated.
The compounds were dissolved in di-water at the concentration of 0.068 mg/mL and stored overnight at 4° C.
52 Male BALB/c mice (Charles River Laboratories) were used for this study. The mice were approximately 8 weeks at the initiation of dosing with an average body weight of 23 grams.
The day prior to dose administration 52 BALB/c mice were placed into a dark room and dark adapted for a minimum of 12 hours prior to dose administration. The mice were maintained in the dark for the duration of the study.
(§2) Each animal was removed from its cage and dosed accordingly to the study design in Table 10 (see below). Each animal was administered 0.1 mL of the appropriate test article or vehicle orally using a 1 mL syringe fitted with a 23 gauge oral gavage needle. At 2, 4, 6, 8, 16 or 24 hours following dose administration, animals were removed from the dark and exposed to 5000 Lux white light for 10 minutes to photobleach their eyes. Following the completion of the photobleach the animals were returned to the dark for 2 hours to allow for the regeneration of 11-cis-retinal in the eyes. Two hours after photobleaching each animal was euthanized with carbon dioxide followed by cervical dislocation, in the dark under red light. The light control group was euthanized immediately following photobleaching. Immediately following the cervical dislocation both eyes of each animal were removed and transferred into separate tubes, flash frozen in liquid nitrogen and stored in the dark at −80° C. until processing and analysis.
(§3) All sample processing procedures were performed in the dark under red light.
Extracted samples were analyzed using an Agilent 1100 HPLC system according to the procedure outlined in Table 12 (see below)
(§4) HPLC analysis of the eyes measures the peak area units of the 110cis-Ral-Oxime_syn. Signal.
(§5) Data analysis % inhibition (drug vs. recovery control). % control (drug vs. light control), and One-way ANOVA (followed by Tukey's Multiple Comparison) were performed using peak area units and performed by Prism software. Data are represented as mean and standard deviation.

In test [4] the test system is retinal isomerase activity (recovery of 11-cis-retinal). The test can be described thus: Comparative in vivo murine isomerase assay, dose response. Details: species or system BALB/c mice. The conditions noted are these: BALB/c mice, 2 hours; for Avg. % Inhibition: 11-cis-retinal, drug vs. recovery control. As for the experimental part: as §1
On the day prior to dose administration compound A and compound D were weighed into new empty glass vials. The compounds were dissolved in di-water at the concentration of 0.833 mg/mL compound A and 0.892 mg/mL compound D, serially diluted into various concentrations, and stored overnight at 4° C.
56 Male BALB/c mice (Charles River Laboratories) were used for this study. The mice were approximately 8 weeks at the initiation of dosing with an average body weight of 24 grams.
The day prior to dose administration 56 BALB/c mice were placed into a dark room and dark adapted for a minimum of 12 hours prior to dose administration. The mice were maintained in the dark for the duration of the study.
as §2, with “Table 4” for “Table 10”, “appropriate compound” for “appropriate test article”, “vehicle via oral gavage” for “vehicle orally”, “needle. Two” for “needle. At 2, 4, 6, 8, 16 or 24”
as §3
Extracted samples were analyzed using an Agilent 1100 HPLC system according to the procedure outlined in Table 6 (see below)
as §4, §5

Entries after “also recorded” stand apart in the source; their conditions may differ. Read-outs that look alike come from different tables or passages of the source.

For orientation: IC50 means the midpoint of a concentration-inhibition curve. Take `NCC[C@@H](O)c1cccc(NCC2CCCCC2)c1`: the IC50 in test [1] came to 6.3 nM.

Broadly, the % Inhibition is how much of the control response was suppressed. A higher % Inhibition goes with a strong effect. As to `NCC[C@@H](O)c1cccc(OCC2CCCOC2)c1` (mixture of isomers) [Example 3, (1R)-3-Amino-1-(3-((tetrahydro-2H-pyran-3-yl)methoxy)phenyl)propan-1-ol], in test [2] (dose 0.3 mg/kg, time 2 h), the “% Inhibition” value is recorded as 75.1%.

Turning to `COC(=O)N1CCC(COc2cccc([C@H](O)CCN)c2)CC1` [Example 17, (R)-Methyl 4-((3-(3-amino-1-hydroxypropyl)phenoxy)methyl)piperidine-1-carboxylate], the “% Inhibition” value in test [2] (dose 1 mg/kg, time 4 h) was determined as 85%.

In the case of `NCCC(O)c1cccc(OCC2CCCCO2)c1` (stereo not shown) [compound D, reference compound], the “significance of inhibitory effect on the recovery of 11-cis-retinal vs. recovery control” value was “not a statistically significant difference, P>0.05 for any time points; also recorded: no significant inhibitory effect at any time points; also recorded: did not exhibit a significant difference from the control group at any time point” in test [3] (2, 4, 6, 8, 16 and 24 hours, 0.3 mg/kg); “statistically significant difference, P<0.001 for 1 and 3 mg/kg dose levels; also recorded: significant inhibitory effect at 1 mg/kg and 3 mg/kg dose levels” in test [4] (single oral dose 0.03-3 mg/kg). Also, the activity at 0.3 mg/kg in test [3] (time point 2 hours) was 86.8%; in test [3] (time point 4 hours), 102%; in test [3] (time point 6 hours) it was 87.9%; in test [3] (time point 8 hours), 94.6%; in test [3] (time point 16 hours), 104%; in test [3] (time point 24 hours), 89.5%. The IC50 in test [1] is reported as 24 nM. Also, the “Avg. % Inhibition” value is recorded as “no inhibition” in test [4] (oral 0.3 mg/kg, 0.3 mg/kg) and “same level of inhibition” in test [4] (oral 3 mg/kg, 3 mg/kg). In addition, the “IC50 (dose response experiment)” value in test [4] (single oral dose) was found to be 0.59 mg/kg. For the same compound, the “dose at which 11-cis-retinal recovery was inhibited by 50%” value in test [4] (single oral dose) amounted to 0.59 mg/kg.
